Experimental data as given in patent publication US12344610B2, “APOL1 inhibitors and methods of use” (Maze Therapeutics, Inc., priority 2022, dated 2025).

Legend:
[1] = test system: HEK293 cells overexpressing APOL1 G2; experiment: APOL1 G2 HEK293 cell rescue assay (reversal of cell death caused by overexpression of APOL1); type: cell-based; settings: Homo sapiens, HEK293, HEK293 overexpressing APOL1 G2; geometric mean of at least 2 assay runs; † = single assay run
Method in brief: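 EC50 is the half-maximal effective concentration for reversing cell death driven by APOL1 G2 overexpression in HEK293 cells. Reported as geometric mean of at least 2 runs on separate days, each run averaging duplicate wells per plate; some values from a single run.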

[2] = test system: Trypanosoma brucei Lister 427 VSG221 with APOL1 G2 recombinant protein; experiment: APOL1 G2 trypanosome cell rescue assay (Example B5); type: cell-based; settings: Trypanosoma brucei, 20 h, read-out: APOL1 G2 Trypanosome Rescue EC50, Trypanosoma brucei Lister 427 VSG221 with APOL1 G2 recombinant protein, 20 hours, CellTiter-Glo; geometric mean of at least 2 assay runs; † = single assay run
Method in brief: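 Recombinant mature APOL1 (residues 28-398, His-tag removed, E. coli-expressed, refolded from inclusion bodies, DDM buffer) at […] added with 250 trypanosomes/well in modified HMI-9 media. Duplicate 11-point 2-fold compound series, 0.4% DMSO; 20 h at 37° C, 5% CO2, then CellTiter-Glo luminescence for viability.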

| SMILES | EC50 [1] [nM] | EC50 [2] [nM] |
| --- | --- | --- |
| CN=S(C)(=O)c1ccc(OCCN2CCC3(CC2)C(=O)Nc2ccc(Cl)cc23)cc1 (stereo not drawn) [Compound 147, 5-chloro-1′-(2-{4-[methyl(methylimino)oxo-λ^6-sulfanyl]phenoxy}ethyl)-1,2-dihydrospiro[indole-3,4′-piperidin]-2-one] | 63.1 | 65.4 |
| CN=S(C)(=O)c1ccc(OCCN2CCC3(CC2)C(=O)Nc2ccc(C#N)cc23)cc1 (stereo not drawn) [Compound 150, 1′-(2-{4-[methyl(methylimino)oxo-λ^6-sulfanyl]phenoxy}ethyl)-2-oxo-1,2-dihydrospiro[indole-3,4′-piperidine]-5-carbonitrile] | 228 | 519 |
| CN1CCc2cc(OCCN3CCC4(CC3)C(=O)Nc3ccc(Cl)cc34)ccc2S1(=O)=O [Compound 153, 6-(2-{5-chloro-2-oxo-1,2-dihydrospiro[indole-3,4′-piperidin]-1′-yl}ethoxy)-2-methyl-3,4-dihydro-2H-1λ^6,2-benzothiazine-1,1-dione] | 22.1 | 25.6 |
| CN1CCc2cc(OCCN3CCC4(CC3)C(=O)Nc3ccc(C#N)cc34)ccc2S1(=O)=O [Compound 154, 1′-{2-[(2-methyl-1,1-dioxo-3,4-dihydro-2H-1λ^6,2-benzothiazin-6-yl)oxy]ethyl}-2-oxo-1,2-dihydrospiro[indole-3,4′-piperidine]-5-carbonitrile] | 67.1 | 160 |
| CS(=O)(=O)c1ccc(OCCN2CCC3(CC2)C(=O)Nc2ccc(Cl)cc23)cc1Cl [Compound 155, 5-chloro-1′-[2-(3-chloro-4-methanesulfonylphenoxy)ethyl]-1,2-dihydrospiro[indole-3,4′-piperidin]-2-one] | 26.2 | 9.65 |
| CS(=O)(=O)c1ccc(OCCN2CCC3(CC2)C(=O)Nc2ccc(C#N)cc23)cc1Cl [Compound 156, 1′-[2-(3-chloro-4-methanesulfonylphenoxy)ethyl]-2-oxo-1,2-dihydrospiro[indole-3,4′-piperidine]-5-carbonitrile] | 55.9 | 44.8 |
| CC(C)(C#N)c1ccc(OCCN2CCC3(CC2)C(=O)Nc2ccc(C#N)cc23)cc1 [Compound 157, 1′-{2-[4-(1-cyano-1-methylethyl)phenoxy]ethyl}-2-oxo-1,2-dihydrospiro[indole-3,4′-piperidine]-5-carbonitrile] | 50.4 | 45.1 |
| CC1(S(=O)(=O)c2ccc(OCCN3CCC4(CC3)C(=O)Nc3ccc(Cl)cc34)cn2)COC1 [Compound 158, 5-chloro-1′-[2-({6-[(3-methyloxetan-3-yl)sulfonyl]pyridin-3-yl}oxy)ethyl]-1,2-dihydrospiro[indole-3,4′-piperidin]-2-one] | 65.7 | 45.9 |
| CS(=O)(=O)C1(c2ccc(OCCN3CCC4(CC3)C(=O)N(CCO)c3ccc(Cl)cc34)cc2)COC1 [Compound 160, 5-chloro-1-(2-hydroxyethyl)-1′-{2-[4-(3-methanesulfonyloxetan-3-yl)phenoxy]ethyl}-1,2-dihydrospiro[indole-3,4′-piperidin]-2-one] | 75.4 | 42.3 |
| Cc1cc(OCCN2CCC3(CC2)C(=O)Nc2ccc(Cl)cc23)cnc1S(C)(=O)=O [Compound 161, 5-chloro-1′-{2-[(6-methanesulfonyl-5-methylpyridin-3-yl)oxy]ethyl}-1,2-dihydrospiro[indole-3,4′-piperidin]-2-one] | 46.4 | 33.3 |
| O=C1CCc2cc(OCCN3CCC4(CC3)C(=O)Nc3ccc(Cl)cc34)ccc2N1CCO [Compound 162, 5-chloro-1′-(2-{[1-(2-hydroxyethyl)-2-oxo-1,2,3,4-tetrahydroquinolin-6-yl]oxy}ethyl)-1,2-dihydrospiro[indole-3,4′-piperidin]-2-one] | 57.1 | 50.9 |
| CS(=O)(=O)c1ccc(OCCN2CCC3(CC2)C(=O)Nc2ccc(Cl)cc23)cc1OC(F)F [Compound 163, 5-chloro-1′-{2-[3-(difluoromethoxy)-4-methanesulfonylphenoxy]ethyl}-1,2-dihydrospiro[indole-3,4′-piperidin]-2-one] | 24.6 | 21.2 |
| CS(=O)(=O)c1ccc(OCCN2CCC3(CC2)C(=O)Nc2ccc(C#N)cc23)cc1OC(F)F [Compound 164, 1′-{2-[3-(difluoromethoxy)-4-methanesulfonylphenoxy]ethyl}-2-oxo-1,2-dihydrospiro[indole-3,4′-piperidine]-5-carbonitrile] | 103 | 87.1 |
| CS(=O)(=O)C1(c2ccc(OCCN3CCC4(CC3)C(=O)Nc3ccc(Cl)cc34)cc2C(F)(F)F)COC1 [Compound 165, 5-chloro-1′-{2-[4-(3-methanesulfonyloxetan-3-yl)-3-(trifluoromethyl)phenoxy]ethyl}-1,2-dihydrospiro[indole-3,4′-piperidin]-2-one] | 21.2 | 11.1 |
| CS(=O)(=O)C1(c2ccc(OCCN3CCC4(CC3)C(=O)Nc3ccc(C#N)cc34)cc2C(F)(F)F)COC1 [Compound 166, 1′-{2-[4-(3-methanesulfonyloxetan-3-yl)-3-(trifluoromethyl)phenoxy]ethyl}-2-oxo-1,2-dihydrospiro[indole-3,4′-piperidine]-5-carbonitrile] | 56.1 | 33.8 |
| O=C1Nc2ccc(Cl)cc2C12CCN(CCOc1ccc3c(c1)CCNS3(=O)=O)CC2 [Compound 167, 6-(2-{5-chloro-2-oxo-1,2-dihydrospiro[indole-3,4′-piperidin]-1′-yl}ethoxy)-3,4-dihydro-2H-1λ^6,2-benzothiazine-1,1-dione] | 42.7 | 35 |
| N#Cc1ccc2c(c1)C1(CCN(CCOc3ccc4c(c3)CCNS4(=O)=O)CC1)C(=O)N2 [Compound 168, 1′-{2-[(1,1-dioxo-3,4-dihydro-2H-1λ^6,2-benzothiazin-6-yl)oxy]ethyl}-2-oxo-1,2-dihydrospiro[indole-3,4′-piperidine]-5-carbonitrile] | 343 | 191 |
| CN1C(=O)Cc2cc(OCCN3CCC4(CC3)C(=O)Nc3ccc(C#N)cc34)cc(F)c21 [Compound 169, 1′-{2-[(7-fluoro-1-methyl-2-oxo-2,3-dihydro-1H-indol-5-yl)oxy]ethyl}-2-oxo-1,2-dihydrospiro[indole-3,4′-piperidine]-5-carbonitrile] | 247 | 295 |
| CC1(Oc2ncc(OCCN3CCC4(CC3)C(=O)Nc3ccc(Cl)cc34)cn2)COC1 [Compound 172, 5-chloro-1′-[2-({2-[(3-methyloxetan-3-yl)oxy]pyrimidin-5-yl}oxy)ethyl]-1,2-dihydrospiro[indole-3,4′-piperidin]-2-one] | 99.1 | 108 |
| CCS(=O)(=O)C1(c2ccc(OCCN3CCC4(CC3)C(=O)Nc3ccc(C#N)cc34)cc2)COC1 [Compound 174, 1′-(2-{4-[3-(ethanesulfonyl)oxetan-3-yl]phenoxy}ethyl)-2-oxo-1,2-dihydrospiro[indole-3,4′-piperidine]-5-carbonitrile] | 104 | 137 |
| CS(=O)(=O)C1(c2ccc(OCCN3CCC4(CC3)C(=O)Nc3ccc(Cl)cc34)cc2)CCC1 [Compound 180, 5-chloro-1′-{2-[4-(1-methanesulfonylcyclobutyl)phenoxy]ethyl}-1,2-dihydrospiro[indole-3,4′-piperidin]-2-one] | 22.1 | 13.3 |
| CS(=O)(=O)C1(c2ccc(OCCN3CCC4(CC3)C(=O)Nc3ccc(C#N)cc34)cc2)CCC1 [Compound 181, 1′-{2-[4-(1-methanesulfonylcyclobutyl)phenoxy]ethyl}-2-oxo-1,2-dihydrospiro[indole-3,4′-piperidine]-5-carbonitrile] | 44.5 | 70.7 |
| CS(=O)(=O)C1(c2ccc(OCCN3CCC4(CC3)C(=O)Nc3ccc(Cl)cc34)cc2)CC2(COC2)C1 [Compound 182, 5-chloro-1′-[2-(4-{6-methanesulfonyl-2-oxaspiro[3.3]heptan-6-yl}phenoxy)ethyl]-1,2-dihydrospiro[indole-3,4′-piperidin]-2-one] | 99.6 | 138 |
| CS(=O)(=O)C1(c2ccc(OCCN3CCC4(CC3)C(=O)N(CC(F)(F)F)c3ccc(C#N)cc34)cc2)COC1 [Compound 184, 1′-{2-[4-(3-methanesulfonyloxetan-3-yl)phenoxy]ethyl}-2-oxo-1-(2,2,2-trifluoroethyl)-1,2-dihydrospiro[indole-3,4′-piperidine]-5-carbonitrile] | 498 | 585 |
| CS(=O)(=O)C1(c2ccc(OCCN3CCC4(CC3)C(=O)N(CC(F)(F)F)c3ccc(Cl)cc34)cc2)COC1 [Compound 185, 5-chloro-1′-{2-[4-(3-methanesulfonyloxetan-3-yl)phenoxy]ethyl}-1-(2,2,2-trifluoroethyl)-1,2-dihydrospiro[indole-3,4′-piperidin]-2-one] | 113 | 140 |
| CS(=O)(=O)C1(c2ccc(OCCN3CCC4(CC3)C(=O)Nc3ccc(Cl)cc34)cc2)CCOCC1 [Compound 188, 5-chloro-1′-{2-[4-(4-methanesulfonyloxan-4-yl)phenoxy]ethyl}-1,2-dihydrospiro[indole-3,4′-piperidin]-2-one] | 39.2 | 26.7 |
| CN1C(=O)C2(CCN(CCOc3cc(F)c(C4(S(C)(=O)=O)COC4)c(F)c3)CC2)c2cc(C#N)ccc21 [Compound 189, 1′-{2-[3,5-difluoro-4-(3-methanesulfonyloxetan-3-yl)phenoxy]ethyl}-1-methyl-2-oxo-1,2-dihydrospiro[indole-3,4′-piperidine]-5-carbonitrile] | 59.1 | 61.4 |
